What was measured:
[1] = biological target: Beta-1 adrenergic receptor (Homo sapiens) (UniProt P08588); settings: Compound concentration 10.0 uM
[2] = biological target: Muscarinic acetylcholine receptor M2 (Homo sapiens) (UniProt P08172); settings: Compound concentration 10.0 uM
[3] = biological target: T1, Myotonin-protein kinase (Homo sapiens) (UniProt Q09013); assay: DMPK Kinase screen; settings: Compound concentration 1.0 uM
T1 sequence (whole entry): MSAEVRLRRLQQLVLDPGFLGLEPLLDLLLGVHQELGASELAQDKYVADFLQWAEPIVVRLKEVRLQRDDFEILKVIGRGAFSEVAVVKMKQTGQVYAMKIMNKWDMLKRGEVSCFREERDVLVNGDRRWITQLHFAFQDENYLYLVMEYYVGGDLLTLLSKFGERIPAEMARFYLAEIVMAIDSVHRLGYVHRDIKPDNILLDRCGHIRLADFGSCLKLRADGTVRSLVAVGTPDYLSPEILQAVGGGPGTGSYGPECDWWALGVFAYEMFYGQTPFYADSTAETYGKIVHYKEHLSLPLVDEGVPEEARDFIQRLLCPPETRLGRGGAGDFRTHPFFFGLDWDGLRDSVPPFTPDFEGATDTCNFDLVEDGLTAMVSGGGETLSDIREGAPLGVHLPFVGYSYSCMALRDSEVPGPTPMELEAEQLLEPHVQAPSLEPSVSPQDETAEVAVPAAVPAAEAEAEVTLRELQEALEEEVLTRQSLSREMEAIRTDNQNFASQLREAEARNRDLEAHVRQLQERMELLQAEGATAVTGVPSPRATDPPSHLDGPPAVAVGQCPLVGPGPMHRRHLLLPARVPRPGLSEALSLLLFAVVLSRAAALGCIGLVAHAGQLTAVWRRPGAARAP

[4] = biological target: T2, Serine/threonine-protein kinase Nek1 (Homo sapiens) (UniProt Q96PY6); assay: NEK1 Kinase screen; settings: Compound concentration 1.0 uM
T2 sequence (whole entry): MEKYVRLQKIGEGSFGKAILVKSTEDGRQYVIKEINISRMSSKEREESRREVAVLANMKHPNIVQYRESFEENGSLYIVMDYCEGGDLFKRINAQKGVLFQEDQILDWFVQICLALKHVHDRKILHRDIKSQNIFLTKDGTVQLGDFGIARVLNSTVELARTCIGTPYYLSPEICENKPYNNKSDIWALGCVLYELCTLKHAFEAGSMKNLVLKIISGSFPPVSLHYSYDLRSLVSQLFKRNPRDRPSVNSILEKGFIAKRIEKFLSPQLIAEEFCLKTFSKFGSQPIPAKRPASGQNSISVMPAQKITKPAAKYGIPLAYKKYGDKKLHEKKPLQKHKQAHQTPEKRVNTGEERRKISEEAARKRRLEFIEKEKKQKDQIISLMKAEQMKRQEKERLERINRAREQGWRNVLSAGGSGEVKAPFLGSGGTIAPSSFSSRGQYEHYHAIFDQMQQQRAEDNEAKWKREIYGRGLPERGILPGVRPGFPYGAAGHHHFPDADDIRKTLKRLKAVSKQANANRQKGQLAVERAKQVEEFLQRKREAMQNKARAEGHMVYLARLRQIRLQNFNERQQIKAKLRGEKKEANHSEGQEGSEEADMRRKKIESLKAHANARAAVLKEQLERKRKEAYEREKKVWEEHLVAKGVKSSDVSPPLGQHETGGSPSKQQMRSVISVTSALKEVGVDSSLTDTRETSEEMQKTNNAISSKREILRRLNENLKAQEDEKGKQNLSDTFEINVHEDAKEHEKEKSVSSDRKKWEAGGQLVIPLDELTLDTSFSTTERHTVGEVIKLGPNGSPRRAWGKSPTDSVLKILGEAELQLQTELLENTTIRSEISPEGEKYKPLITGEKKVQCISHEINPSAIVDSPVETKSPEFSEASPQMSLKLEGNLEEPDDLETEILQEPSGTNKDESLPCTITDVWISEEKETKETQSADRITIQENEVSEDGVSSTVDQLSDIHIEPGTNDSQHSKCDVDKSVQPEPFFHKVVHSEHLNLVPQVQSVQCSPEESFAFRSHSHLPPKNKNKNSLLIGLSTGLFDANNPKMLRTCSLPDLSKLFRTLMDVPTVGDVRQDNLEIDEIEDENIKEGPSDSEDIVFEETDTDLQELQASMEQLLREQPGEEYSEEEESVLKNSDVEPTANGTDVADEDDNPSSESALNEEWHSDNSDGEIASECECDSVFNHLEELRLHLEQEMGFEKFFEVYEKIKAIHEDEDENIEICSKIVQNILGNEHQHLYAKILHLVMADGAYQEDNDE

[5] = biological target: G protein-coupled receptor kinase 4 (Homo sapiens) (UniProt P32298); assay: GRK4 Kinase screen; settings: Compound concentration 1.0 uM
Chain of G protein-coupled receptor kinase 4 (Homo sapiens) (P32298 whole entry, looked up): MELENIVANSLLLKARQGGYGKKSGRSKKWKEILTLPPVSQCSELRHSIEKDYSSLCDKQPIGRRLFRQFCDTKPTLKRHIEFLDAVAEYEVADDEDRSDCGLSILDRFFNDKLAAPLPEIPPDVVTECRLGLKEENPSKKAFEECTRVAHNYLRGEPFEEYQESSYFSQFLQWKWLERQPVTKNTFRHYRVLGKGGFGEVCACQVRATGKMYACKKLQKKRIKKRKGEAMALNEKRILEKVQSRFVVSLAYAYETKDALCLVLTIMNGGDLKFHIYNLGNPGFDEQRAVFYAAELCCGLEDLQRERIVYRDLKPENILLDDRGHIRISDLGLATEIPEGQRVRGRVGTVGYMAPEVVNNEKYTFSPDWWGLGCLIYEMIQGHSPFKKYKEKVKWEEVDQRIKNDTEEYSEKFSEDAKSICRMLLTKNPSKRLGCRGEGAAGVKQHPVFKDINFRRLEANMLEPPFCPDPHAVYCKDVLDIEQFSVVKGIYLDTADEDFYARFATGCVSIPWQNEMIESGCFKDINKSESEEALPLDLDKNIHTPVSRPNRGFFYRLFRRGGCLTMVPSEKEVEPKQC

[6] = biological target: Ephrin type-A receptor 7 (Homo sapiens) (UniProt Q15375); assay: EPHA7 Kinase screen; settings: Compound concentration 1.0 uM
Chain of Ephrin type-A receptor 7 (Homo sapiens) (Q15375 28-998 limits assumed): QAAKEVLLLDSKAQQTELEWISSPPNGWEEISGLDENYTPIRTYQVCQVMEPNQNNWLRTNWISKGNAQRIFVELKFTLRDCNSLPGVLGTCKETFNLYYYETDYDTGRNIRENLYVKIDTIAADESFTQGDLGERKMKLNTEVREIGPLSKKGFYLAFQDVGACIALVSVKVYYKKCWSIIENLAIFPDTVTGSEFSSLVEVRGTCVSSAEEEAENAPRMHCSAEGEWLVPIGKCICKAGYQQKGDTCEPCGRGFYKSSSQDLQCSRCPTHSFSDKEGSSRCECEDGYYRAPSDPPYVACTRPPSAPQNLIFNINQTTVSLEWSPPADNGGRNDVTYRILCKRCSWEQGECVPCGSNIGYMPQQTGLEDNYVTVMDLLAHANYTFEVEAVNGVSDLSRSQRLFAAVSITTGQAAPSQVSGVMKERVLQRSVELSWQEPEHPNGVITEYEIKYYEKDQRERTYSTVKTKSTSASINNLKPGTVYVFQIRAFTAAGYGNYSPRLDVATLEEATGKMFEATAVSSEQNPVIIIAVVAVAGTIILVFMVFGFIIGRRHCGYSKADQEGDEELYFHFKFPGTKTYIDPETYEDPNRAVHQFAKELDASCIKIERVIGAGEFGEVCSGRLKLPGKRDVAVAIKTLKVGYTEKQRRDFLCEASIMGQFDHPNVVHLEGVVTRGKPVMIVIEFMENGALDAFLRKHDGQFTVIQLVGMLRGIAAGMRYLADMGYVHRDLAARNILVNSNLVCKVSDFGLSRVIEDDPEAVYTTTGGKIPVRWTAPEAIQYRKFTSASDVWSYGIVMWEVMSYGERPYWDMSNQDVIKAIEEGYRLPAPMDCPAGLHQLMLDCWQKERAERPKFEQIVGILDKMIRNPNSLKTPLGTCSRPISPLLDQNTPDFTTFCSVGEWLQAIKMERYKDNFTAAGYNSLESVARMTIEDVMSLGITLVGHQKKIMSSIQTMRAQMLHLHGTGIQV

[7] = biological target: Dual specificity mitogen-activated protein kinase kinase 1 (Homo sapiens) (UniProt Q02750); assay: MAP2K1 (MEK1) Kinase screen; settings: Compound concentration 1.0 uM
Chain of Dual specificity mitogen-activated protein kinase kinase 1 (Homo sapiens) (Q02750 whole entry, canonical isoform): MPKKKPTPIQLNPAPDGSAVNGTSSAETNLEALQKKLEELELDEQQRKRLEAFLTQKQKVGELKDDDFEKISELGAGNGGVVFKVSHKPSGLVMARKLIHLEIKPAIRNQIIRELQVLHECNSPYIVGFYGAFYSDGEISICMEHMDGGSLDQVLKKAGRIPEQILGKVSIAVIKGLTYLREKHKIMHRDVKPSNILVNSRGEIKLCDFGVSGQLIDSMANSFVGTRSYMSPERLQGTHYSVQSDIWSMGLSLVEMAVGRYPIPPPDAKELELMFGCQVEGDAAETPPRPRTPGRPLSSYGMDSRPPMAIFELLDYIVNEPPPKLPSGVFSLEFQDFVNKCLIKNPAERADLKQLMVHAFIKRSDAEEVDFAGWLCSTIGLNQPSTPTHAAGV

[8] = biological target: Casein kinase I isoform alpha (Homo sapiens) (UniProt P48729); assay: CSNK1A1 (CK1 alpha 1) Kinase screen; settings: Compound concentration 1.0 uM
Chain of Casein kinase I isoform alpha (Homo sapiens) (P48729 2-337 limits assumed): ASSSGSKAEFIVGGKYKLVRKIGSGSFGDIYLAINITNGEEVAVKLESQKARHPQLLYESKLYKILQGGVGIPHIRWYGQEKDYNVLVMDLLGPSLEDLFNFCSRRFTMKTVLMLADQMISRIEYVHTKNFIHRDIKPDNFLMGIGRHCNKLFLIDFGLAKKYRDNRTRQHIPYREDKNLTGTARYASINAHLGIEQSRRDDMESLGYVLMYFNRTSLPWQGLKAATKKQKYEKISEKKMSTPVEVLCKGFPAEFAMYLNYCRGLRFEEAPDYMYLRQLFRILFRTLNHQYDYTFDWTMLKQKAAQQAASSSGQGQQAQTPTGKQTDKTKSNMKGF

[9] = biological target: T3, Aurora kinase A (Homo sapiens) (UniProt O14965); assay: AURKA (Aurora A) Kinase screen; settings: Compound concentration 1.0 uM
T3 sequence (whole entry): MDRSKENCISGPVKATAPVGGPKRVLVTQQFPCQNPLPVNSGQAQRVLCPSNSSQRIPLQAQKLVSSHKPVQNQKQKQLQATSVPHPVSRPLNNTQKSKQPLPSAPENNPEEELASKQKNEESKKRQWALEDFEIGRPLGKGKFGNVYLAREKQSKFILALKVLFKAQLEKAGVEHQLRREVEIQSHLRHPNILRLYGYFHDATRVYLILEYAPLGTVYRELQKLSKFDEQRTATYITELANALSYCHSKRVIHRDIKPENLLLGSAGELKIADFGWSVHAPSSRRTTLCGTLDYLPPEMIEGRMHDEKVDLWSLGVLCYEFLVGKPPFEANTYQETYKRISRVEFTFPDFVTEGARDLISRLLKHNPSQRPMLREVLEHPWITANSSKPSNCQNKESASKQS

[10] = biological target: Melanocortin receptor 3 (Homo sapiens) (UniProt P41968); assay: Inhibition of Melanocortin MC3 at 10 µM in the Eurofins-Panlabs radioligand binding assay (Eurofins_assay_251300); parameters: ligand concentration 0.035 nM; settings: Compound concentration 10.0 uM
Chain of Melanocortin receptor 3 (Homo sapiens) (P41968 whole entry): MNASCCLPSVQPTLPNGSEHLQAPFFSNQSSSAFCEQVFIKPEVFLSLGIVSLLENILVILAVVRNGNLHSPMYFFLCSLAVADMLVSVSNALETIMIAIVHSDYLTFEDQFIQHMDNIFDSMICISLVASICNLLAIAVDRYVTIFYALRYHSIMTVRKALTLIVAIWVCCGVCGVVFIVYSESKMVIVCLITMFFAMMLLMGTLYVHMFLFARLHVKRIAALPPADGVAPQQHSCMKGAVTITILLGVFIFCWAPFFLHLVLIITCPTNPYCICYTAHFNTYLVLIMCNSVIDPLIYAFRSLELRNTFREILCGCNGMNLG

Measured: inhibition

Chain of Muscarinic acetylcholine receptor M2 (Homo sapiens) (P08172 whole entry): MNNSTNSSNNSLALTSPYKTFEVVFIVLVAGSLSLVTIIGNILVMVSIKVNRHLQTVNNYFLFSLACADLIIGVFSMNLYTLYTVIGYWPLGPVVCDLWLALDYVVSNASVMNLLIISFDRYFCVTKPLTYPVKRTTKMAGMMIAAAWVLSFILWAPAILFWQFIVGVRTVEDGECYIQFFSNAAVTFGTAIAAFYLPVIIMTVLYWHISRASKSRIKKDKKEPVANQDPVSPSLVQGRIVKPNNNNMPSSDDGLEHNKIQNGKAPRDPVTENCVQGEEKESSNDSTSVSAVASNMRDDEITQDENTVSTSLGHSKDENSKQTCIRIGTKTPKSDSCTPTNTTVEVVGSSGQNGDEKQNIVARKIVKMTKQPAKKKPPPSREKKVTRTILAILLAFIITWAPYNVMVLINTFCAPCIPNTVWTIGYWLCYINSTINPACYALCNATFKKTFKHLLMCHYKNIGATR
Chain of Beta-1 adrenergic receptor (Homo sapiens) (P08588 whole entry, looked up): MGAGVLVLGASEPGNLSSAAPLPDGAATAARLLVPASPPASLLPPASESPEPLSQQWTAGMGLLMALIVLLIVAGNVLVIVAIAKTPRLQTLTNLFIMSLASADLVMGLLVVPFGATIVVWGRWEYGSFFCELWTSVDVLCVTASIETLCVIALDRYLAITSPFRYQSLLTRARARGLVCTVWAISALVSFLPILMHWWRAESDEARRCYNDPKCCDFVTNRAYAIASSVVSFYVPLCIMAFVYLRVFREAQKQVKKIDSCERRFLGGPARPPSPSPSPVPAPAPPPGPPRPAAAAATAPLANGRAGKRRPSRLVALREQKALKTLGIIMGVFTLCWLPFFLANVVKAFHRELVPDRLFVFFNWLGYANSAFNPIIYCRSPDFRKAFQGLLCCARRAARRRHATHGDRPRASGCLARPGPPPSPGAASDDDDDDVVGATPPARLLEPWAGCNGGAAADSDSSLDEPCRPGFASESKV

C[C@@H]1CN(c2cc(-c3nn(C)c4ccc(OC5(C)CC5)cc34)ncn2)C[C@H](C)O1 [MLi-2-NC]
inactive: [1] 5.75% | [2] 21%

C[C@@H]1CN(c2cc(-c3n[nH]c4ccc(OC5(C)CC5)cc34)ncn2)C[C@H](C)O1 [MLi-2]
inactive: [3] 5.71% | [4] 3.48% | [5] 6.02% | [6] 8.11% | [7] 8.27% | [8] 1.89% | [9] -0.211% | [10] -2%

Reference: ChEMBL document CHEMBL4507291 (2021)
